We go through eleven compounds from PubChem BioAssay (NCI).

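A five-concentration, 48-hour dose response in 96-well plates underlies each endpoint, interpolated linearly between surrounding concentrations. Abbreviation: GI50, concentration required for 50% inhibition of growth. At the TGI there is no net growth.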

Some test systems named below: HCT-15 colon; MOLT-4 leukemia; ACHN renal; 786-0 renal; OVCAR-8 ovarian; K-562 leukemia; OVCAR-4 ovarian; HOP-92 NSCLC; NCI-H23 lung; MALME-3M melanoma.
Test in all cases: NCI tumour cell line growth inhibition, 48 h

Regarding `OCCCN=NNc1ccc(-c2nc3ccccc3[nH]2)cc1`, the GI50 with HCT-15 colon is 4.43 µM; in the test on MOLT-4 leukemia, 43.6 µM; in the test with ACHN renal, 24.4 µM; in the test on 786-0 renal, 17 µM; with OVCAR-8 ovarian, 3.12 µM; in the test on K-562 leukemia, 16.6 µM. In addition, the values for the GI50 in the test on OVCAR-4 ovarian and in the test with HOP-92 NSCLC were 3.78 µM and 14.8 µM, respectively. Besides, the TGI in the test with HCT-15 colon is more than 100 µM; in the test with MOLT-4 leukemia, more than 100 µM; in the test on ACHN renal, 64 µM; in the test on 786-0 renal it was 46.7 µM; in the test with OVCAR-8 ovarian it was more than 100 µM; in the test with K-562 leukemia it was 84.9 µM. The TGI with OVCAR-4 ovarian is more than 100 µM; in the test with HOP-92 NSCLC, 66.5 µM.
`COc1ccc(/C=C2\CCCCC2=O)cc1`: the TGI in the test with HCT-15 colon, in the test with MOLT-4 leukemia, in the test on ACHN renal, with 786-0 renal, in the test with OVCAR-8 ovarian and in the test with K-562 leukemia was more than 100 µM in each case. For the same compound, the TGI with OVCAR-4 ovarian and in the test on NCI-H23 lung was more than 100 µM in each case.
In the case of `COc1cc(/C=C/c2cc(/C=C/c3ccc(O)c(OC)c3)n(-c3c(C)cccc3C)c(=O)n2)ccc1O`, the GI50 with HCT-15 colon is 0.442 µM; in the test with ACHN renal, 0.399 µM; in the test with 786-0 renal, 0.958 µM; with OVCAR-8 ovarian, 1.51 µM; in the test on K-562 leukemia, 0.374 µM; in the test on OVCAR-4 ovarian, 0.798 µM. Moreover, the GI50 in the test with HOP-92 NSCLC is 2.07 µM; in the test on NCI-H23 lung, 1.25 µM. The TGI in the test with HCT-15 colon is 4.61 µM; in the test with ACHN renal, 10.6 µM; in the test with 786-0 renal, 3.41 µM; in the test on OVCAR-8 ovarian, 8.16 µM; with K-562 leukemia it was more than 100 µM; in the test on OVCAR-4 ovarian, 8.41 µM. For the same compound, the TGI in the test on HOP-92 NSCLC came out at 5.51 µM; with NCI-H23 lung, 3.98 µM.
For the compound `CCN(CC)CCCNc1cccc2c(SCc3ccccc3)ccnc12`, the GI50 is 1.72 µM in the test on HCT-15 colon; 2.13 µM in the test on MALME-3M melanoma; 1.81 µM in the test on ACHN renal; 1.56 µM in the test with 786-0 renal; 3.41 µM in the test on OVCAR-8 ovarian; 2.62 µM in the test with OVCAR-4 ovarian. Moreover, the GI50 with HOP-92 NSCLC is 2.18 µM; with NCI-H23 lung it was 1.9 µM. The TGI in the test on HCT-15 colon was 3.82 µM; in the test with MALME-3M melanoma, 4 µM; with ACHN renal it was 3.27 µM; with 786-0 renal it was 2.99 µM; in the test on OVCAR-8 ovarian, 11.5 µM; with OVCAR-4 ovarian, 8.29 µM. Also, the figures for the TGI with HOP-92 NSCLC and in the test on NCI-H23 lung were 7.32 µM and 5.09 µM, respectively.
For `CCSCC(N)C(=O)O` (stereo unspecified), the TGI with HCT-15 colon, in the test with MALME-3M melanoma, in the test with ACHN renal, in the test with 786-0 renal, in the test with OVCAR-8 ovarian and with OVCAR-4 ovarian was more than 100 µM in each case. For the same compound, the TGI with HOP-92 NSCLC and in the test on NCI-H23 lung was more than 100 µM throughout.
With `Brc1ccc(-c2nnc(-c3nn(-c4ccccc4)c4nc5ccccc5nc34)o2)cc1`, the TGI in the test on MOLT-4 leukemia, in the test on ACHN renal, with 786-0 renal, in the test on OVCAR-8 ovarian, in the test with K-562 leukemia and in the test with OVCAR-4 ovarian was more than 100 µM each time. Also, the TGI in the test with HOP-92 NSCLC and with NCI-H23 lung was more than 100 µM each time.
Turning to `CC(C)C1OC(=O)C=C1Sc1ccccc1` (stereo unspecified), the TGI in the test with HCT-15 colon, in the test on MALME-3M melanoma, in the test with MOLT-4 leukemia, with ACHN renal, in the test on 786-0 renal and with OVCAR-8 ovarian was more than 100 µM in each case. In addition, the TGI in the test on K-562 leukemia and in the test on OVCAR-4 ovarian was more than 100 µM throughout.
Regarding `N#CC(C(=O)/C(=N\Nc1nc(=S)[nH]n1N)C(C#N)c1ccc(Cl)cc1)c1ccc(Cl)cc1` (stereo unspecified), the TGI with HCT-15 colon, in the test on MALME-3M melanoma, in the test on ACHN renal, in the test on 786-0 renal, in the test with OVCAR-8 ovarian and in the test on OVCAR-4 ovarian was more than 100 µM in each case. Moreover, the TGI in the test with HOP-92 NSCLC and with NCI-H23 lung was more than 100 µM in each case.
Take `CC(=O)N1CC(Nc2ccc(OC(F)(F)F)cc2)=CC1=O`: the GI50 in the test on HCT-15 colon was 0.45 µM; with MALME-3M melanoma, 61.5 µM; with MOLT-4 leukemia, 4.21 µM; with ACHN renal, 8.27 µM; with 786-0 renal it was 3.27 µM; in the test with OVCAR-8 ovarian, 3.63 µM. Further, the GI50 with K-562 leukemia is 0.526 µM; in the test on OVCAR-4 ovarian, 4.84 µM; in the test with NCI-H23 lung it was 4.93 µM. The TGI with HCT-15 colon, with MALME-3M melanoma, with MOLT-4 leukemia, with ACHN renal, in the test with 786-0 renal and with OVCAR-8 ovarian was more than 100 µM each time. Also, the TGI with K-562 leukemia, in the test with OVCAR-4 ovarian and in the test on NCI-H23 lung was more than 100 µM throughout.
As for `COC(=O)c1ccc2c(c1)nc(-c1cc3ccccc3[nH]c1=O)n2-c1cc(C(C)(C)C)[nH]n1`, the GI50 was 2.63 µM with MALME-3M melanoma; 0.793 µM in the test on MOLT-4 leukemia; more than 100 µM in the test on ACHN renal; 3.79 µM in the test on 786-0 renal; 2 µM with OVCAR-8 ovarian; 1.7 µM in the test on K-562 leukemia. In addition, the GI50 was more than 100 µM in the test with OVCAR-4 ovarian and 2.64 µM with NCI-H23 lung. The TGI in the test with MALME-3M melanoma, in the test with MOLT-4 leukemia, in the test on ACHN renal, in the test on 786-0 renal, in the test on OVCAR-8 ovarian and in the test with K-562 leukemia was more than 100 µM throughout. For the same compound, the TGI in the test with OVCAR-4 ovarian and with NCI-H23 lung was more than 100 µM each time.
For `Cc1cc(N(CCC#N)S(C)(=O)=O)ccc1C=O`, the TGI in the test with HCT-15 colon, with MALME-3M melanoma, in the test on MOLT-4 leukemia, with ACHN renal, in the test with 786-0 renal and in the test with OVCAR-8 ovarian was more than 100 µM each time. In addition, the TGI with K-562 leukemia, with OVCAR-4 ovarian and in the test on NCI-H23 lung was more than 100 µM in each case.
